Read-outs that look alike come from different tables or passages of the source.
What was measured:
[1] = biological target: T1, GluN1/GluN2A-V217C receptors (Rattus norvegicus, UniProt P35439+Q00959, V217C); test: TEVC recordings in Xenopus oocytes, zinc inhibition dose-response; type: cell-based
T1 construct: For full-length multimeric membrane-embedded receptors studied in cellulo, as done in the present work; expressed in transfected cells; host or cells: Xenopus laevis oocytes
Method: (§1) The pcDNA3-based expression plasmids for rat GluN1-1a (named GluN1 herein), rat GluN2A, and mouse GluN2B (also known as ε2) subunits, Pfu-based site-directed mutagenesis strategy, and sequencing procedure have been described previously[68],[69]. Incorporation of the unnatural amino acids (UAAs) AzF and BzF into NMDARs was performed using the genetic code expansion methodology as previously described[52],[53],[83]. The plasmid pSVB.Yam carrying the gene encoding the amber suppressor tRNA derived from B. stearothermophilus Tyr-tRNACUA, while the aminoacyl-tRNA synthetases (aaRS) construction for AzF and BzF derived from E. coli TyrRS[84],[85].
(§2) Recombinant NMDARs were expressed in Xenopus laevis oocytes after nuclear injection of 36 nl of a mixture of cDNAs (at 10–30 ng/μl) encoding various GluN1 and GluN2 subunits (ratio 1:1). Oocytes were prepared, injected, incubated, and voltage-clamped as described previously. For UAA incorporation, oocytes were co-injected with 36 nl of a cDNA mixture encoding for of GluN1, GluN2, Yam, and aaRS as follows, unless otherwise indicated in the text: GluN1-K178amber (120 ng/μl), GluN2A (80 ng/µl) or GluN2B (120 ng/μl), Yam (10 ng/μl), AzF-RS (5 ng/μl). After injection, oocytes were incubated at 19 °C in a Barth solution containing (in mM) 88 NaCl, 1 KCl, 0.33 Ca(NO3)2, 0.41 CaCl2, 0.82 MgSO4, 2.4 NaHCO3, 10 HEPES (pH adjusted to 7.6 with NaOH) supplemented with gentamicin ([…]) and the NMDAR glutamate binding site competitive antagonist D-APV (50 μM). AzF and BzF were added to the incubation medium at final concentrations of 1 mM and 2 mM, respectively.
(§3) For all experiments, except those on pH and spermine sensitivity, the standard external solution contained (in mM): 100 NaCl, 0.3 BaCl2, and 5 HEPES (pH adjusted to 7.3 with KOH). […] For the pH and spermine sensitivity experiments, an external solution enriched in HEPES was used to insure proper pH buffering. Unless otherwise mentioned, NMDAR-mediated currents were induced by simultaneously applications of saturating concentrations of glutamate and glycine (100 μM each). Glutamate and glycine dose-response curves (DRC) were performed in the presence of 100 µM glycine and 100 µM glutamate, respectively. Recordings were performed at a holding potential of −60 mV and at room temperature. Data were collected and analyzed using Clampex 10.5 and Clampfit 10.5 (Molecular Devices), respectively, and fitted using KaleidaGraph 4.0 (Synergy software).
(§4) EC50 and nH were fitted as free parameters. […] For proton DRC, corrections for small shifts in the reference potential of bath electrodes and analysis of the data were performed as previously described. Spermine experiments were performed and analyzed as previously described. In brief, spermine sensitivity was assessed at pH 6.5 and at a holding potential of −30 mV to maximize the spermine induced potentiation. […] EC50, a and nH were set as free parameters. MK-801 is an NMDAR open channel blocker with slow reversibility and, consequently, the rate at which MK-801 inhibits NMDAR responses depends on the level of channel activity, that is, channel open probability (Po). Based on this principle, MK-801 is classically used to estimate the level of NMDAR channel activity in macroscopic whole-cell recordings[36],[47],[56],[86],[87]. Note, however, that MK- 801 inhibition kinetics can index relative, not absolute, Po. MK-801 solutions (10 nM for GluN2A-containing receptors and 50 nM for GluN2B-containing receptors) were prepared by dilution of a stock solution (50 mM) into the agonist containing solutions. MK-801 time constants of inhibition (τon) were obtained by fitting currents with a single-exponential component to a time window corresponding to 10–90% of maximum inhibition. On-rate (kon) constants were then calculated assuming a pseudo first-order reaction scheme: kon = 1 / ([MK-801]*τon).

[2] = biological target: T2, GluN1-K178AzF/GluN2B receptors (UniProt P35439+Q01097, K178F); test: TEVC recordings in Xenopus oocytes, modulator sensitivity before and after UV photocrosslinking; type: cell-based, rat (GluN1), mouse (GluN2B); settings: for Izn/Io 0.1 μM: 0.1 μM zinc; for Izn/Io 1 μM: 1 μM zinc; for Izn/Io 10 μM: 10 μM zinc
T2 construct: For full-length multimeric membrane-embedded receptors studied in cellulo, as done in the present work; expressed in transfected cells; host or cells: Xenopus laevis oocytes, co-injected with amber suppressor tRNA (Yam) and AzF-RS
T2 sequence (Q01097 27-1482, other chains not shown): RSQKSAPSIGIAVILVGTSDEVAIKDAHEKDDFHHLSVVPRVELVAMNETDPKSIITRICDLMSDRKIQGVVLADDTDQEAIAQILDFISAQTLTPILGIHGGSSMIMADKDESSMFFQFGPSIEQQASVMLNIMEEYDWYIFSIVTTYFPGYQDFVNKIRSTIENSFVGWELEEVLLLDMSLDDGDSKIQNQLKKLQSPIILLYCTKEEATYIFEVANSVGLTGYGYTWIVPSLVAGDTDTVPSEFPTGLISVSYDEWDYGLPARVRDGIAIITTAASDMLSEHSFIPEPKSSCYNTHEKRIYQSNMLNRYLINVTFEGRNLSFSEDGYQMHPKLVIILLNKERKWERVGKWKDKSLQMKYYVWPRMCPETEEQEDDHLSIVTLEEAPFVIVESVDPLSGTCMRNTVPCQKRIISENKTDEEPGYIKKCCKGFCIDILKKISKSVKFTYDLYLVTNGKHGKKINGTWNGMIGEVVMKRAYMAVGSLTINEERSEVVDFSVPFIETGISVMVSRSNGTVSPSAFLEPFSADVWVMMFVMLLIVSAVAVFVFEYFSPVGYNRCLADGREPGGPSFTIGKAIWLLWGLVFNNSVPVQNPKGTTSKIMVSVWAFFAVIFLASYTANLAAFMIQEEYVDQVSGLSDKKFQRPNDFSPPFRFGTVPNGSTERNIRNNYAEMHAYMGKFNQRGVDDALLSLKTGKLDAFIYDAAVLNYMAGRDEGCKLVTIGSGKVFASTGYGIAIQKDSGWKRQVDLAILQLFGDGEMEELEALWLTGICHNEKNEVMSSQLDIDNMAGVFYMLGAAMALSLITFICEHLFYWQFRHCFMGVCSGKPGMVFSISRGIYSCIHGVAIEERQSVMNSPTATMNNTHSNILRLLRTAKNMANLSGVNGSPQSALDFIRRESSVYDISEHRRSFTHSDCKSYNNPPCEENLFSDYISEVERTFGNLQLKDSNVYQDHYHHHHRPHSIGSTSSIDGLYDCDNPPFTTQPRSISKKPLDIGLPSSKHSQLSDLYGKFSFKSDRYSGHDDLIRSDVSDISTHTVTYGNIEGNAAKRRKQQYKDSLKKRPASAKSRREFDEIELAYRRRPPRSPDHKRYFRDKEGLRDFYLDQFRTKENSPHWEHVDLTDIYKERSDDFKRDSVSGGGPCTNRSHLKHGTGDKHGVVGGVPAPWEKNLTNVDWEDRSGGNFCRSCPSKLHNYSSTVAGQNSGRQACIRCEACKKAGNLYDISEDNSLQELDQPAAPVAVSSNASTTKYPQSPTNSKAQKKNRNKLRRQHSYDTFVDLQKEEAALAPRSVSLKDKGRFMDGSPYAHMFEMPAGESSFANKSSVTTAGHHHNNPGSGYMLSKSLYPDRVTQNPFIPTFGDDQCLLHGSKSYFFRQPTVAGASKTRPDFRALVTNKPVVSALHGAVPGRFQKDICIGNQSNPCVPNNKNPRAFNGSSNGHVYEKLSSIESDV
Method: as §1, §2, §3, §4

[3] = biological target: T3, GluN1-K178AzF/GluN2B receptors (UniProt P35439+Q01097); test: as above; type: cell-based, rat (GluN1), mouse (GluN2B); settings: read-out: Zn2+ IC50
T3 construct: For full-length multimeric membrane-embedded receptors studied in cellulo, as done in the present work; expressed in transfected cells; host or cells: Xenopus laevis oocytes, co-injected with amber suppressor tRNA (Yam) and AzF-RS
Method: as §1, §2, §3, §4

[4] = biological target: T4, GluN1-N512C-L777C/GluN2B-E517C-L781C receptors (UniProt P35439+Q01097, E517C/L777C/L781C/N521C); test: TEVC recordings in Xenopus oocytes, zinc and ifenprodil inhibition dose-response; type: cell-based, rat (GluN1), mouse (GluN2B)
T4 construct: For full-length multimeric membrane-embedded receptors studied in cellulo, as done in the present work; expressed in transfected cells; host or cells: Xenopus laevis oocytes
Method: as §1, §2, §3, §4

[5] = biological target: T5, GluN1/GluN2B-N218C receptors (UniProt P35439+Q01097, N218C); test: as above; type: cell-based, rat (GluN1), mouse (GluN2B)
T5 construct: For full-length multimeric membrane-embedded receptors studied in cellulo, as done in the present work; expressed in transfected cells; host or cells: Xenopus laevis oocytes
T5 sequence (Q01097 27-1482 N218C, other chains not shown): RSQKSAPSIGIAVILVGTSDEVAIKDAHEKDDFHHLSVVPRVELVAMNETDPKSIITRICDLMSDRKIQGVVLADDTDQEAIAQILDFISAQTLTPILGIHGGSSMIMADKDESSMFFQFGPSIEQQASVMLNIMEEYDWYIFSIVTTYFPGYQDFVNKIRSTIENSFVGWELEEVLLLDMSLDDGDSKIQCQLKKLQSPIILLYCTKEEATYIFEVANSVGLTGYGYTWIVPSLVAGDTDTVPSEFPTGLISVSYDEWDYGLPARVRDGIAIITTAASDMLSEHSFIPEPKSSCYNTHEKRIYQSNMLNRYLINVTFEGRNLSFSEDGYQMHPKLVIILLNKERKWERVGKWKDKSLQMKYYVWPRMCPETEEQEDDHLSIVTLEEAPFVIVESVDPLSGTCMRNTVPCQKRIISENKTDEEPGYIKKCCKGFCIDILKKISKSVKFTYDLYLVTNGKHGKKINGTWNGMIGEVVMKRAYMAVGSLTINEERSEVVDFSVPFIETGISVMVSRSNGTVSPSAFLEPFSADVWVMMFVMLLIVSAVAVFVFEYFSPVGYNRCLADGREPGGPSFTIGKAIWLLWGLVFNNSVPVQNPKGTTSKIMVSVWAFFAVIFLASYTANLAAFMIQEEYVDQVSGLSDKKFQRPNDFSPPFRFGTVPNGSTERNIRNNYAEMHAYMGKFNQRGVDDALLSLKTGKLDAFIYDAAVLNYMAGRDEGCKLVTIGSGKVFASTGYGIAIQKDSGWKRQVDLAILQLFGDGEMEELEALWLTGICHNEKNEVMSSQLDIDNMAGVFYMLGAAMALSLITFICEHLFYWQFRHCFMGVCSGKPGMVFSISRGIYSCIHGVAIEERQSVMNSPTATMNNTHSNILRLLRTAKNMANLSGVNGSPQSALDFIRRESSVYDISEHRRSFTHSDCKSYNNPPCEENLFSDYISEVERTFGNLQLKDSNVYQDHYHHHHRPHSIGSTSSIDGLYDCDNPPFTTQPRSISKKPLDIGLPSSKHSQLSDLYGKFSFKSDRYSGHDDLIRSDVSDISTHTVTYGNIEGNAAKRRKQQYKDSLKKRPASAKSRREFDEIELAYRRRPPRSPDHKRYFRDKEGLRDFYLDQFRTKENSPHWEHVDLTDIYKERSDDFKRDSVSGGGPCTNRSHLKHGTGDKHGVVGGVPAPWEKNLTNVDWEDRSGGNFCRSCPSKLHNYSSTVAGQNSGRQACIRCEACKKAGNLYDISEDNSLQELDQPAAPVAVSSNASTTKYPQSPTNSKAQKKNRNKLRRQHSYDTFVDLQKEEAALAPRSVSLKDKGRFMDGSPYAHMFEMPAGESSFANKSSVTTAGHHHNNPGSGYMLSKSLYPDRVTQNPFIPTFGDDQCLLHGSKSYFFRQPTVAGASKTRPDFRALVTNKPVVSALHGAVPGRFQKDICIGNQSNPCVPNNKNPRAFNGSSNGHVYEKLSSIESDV
Method: as §1, §2, §3, §4

[6] = biological target: T6, GluN1-L777C/GluN2B-E517C-L781C receptors (UniProt P35439+Q01097, E517C/L777C/L781C/N521C); test: as above; type: cell-based, rat (GluN1), mouse (GluN2B); settings: read-out: Zn2+ IC50
T6 construct: For full-length multimeric membrane-embedded receptors studied in cellulo, as done in the present work; expressed in transfected cells; host or cells: Xenopus laevis oocytes
Method: as §1, §2, §3, §4

T1 sequence (Q00959 23-1464 V217C, other chains not shown): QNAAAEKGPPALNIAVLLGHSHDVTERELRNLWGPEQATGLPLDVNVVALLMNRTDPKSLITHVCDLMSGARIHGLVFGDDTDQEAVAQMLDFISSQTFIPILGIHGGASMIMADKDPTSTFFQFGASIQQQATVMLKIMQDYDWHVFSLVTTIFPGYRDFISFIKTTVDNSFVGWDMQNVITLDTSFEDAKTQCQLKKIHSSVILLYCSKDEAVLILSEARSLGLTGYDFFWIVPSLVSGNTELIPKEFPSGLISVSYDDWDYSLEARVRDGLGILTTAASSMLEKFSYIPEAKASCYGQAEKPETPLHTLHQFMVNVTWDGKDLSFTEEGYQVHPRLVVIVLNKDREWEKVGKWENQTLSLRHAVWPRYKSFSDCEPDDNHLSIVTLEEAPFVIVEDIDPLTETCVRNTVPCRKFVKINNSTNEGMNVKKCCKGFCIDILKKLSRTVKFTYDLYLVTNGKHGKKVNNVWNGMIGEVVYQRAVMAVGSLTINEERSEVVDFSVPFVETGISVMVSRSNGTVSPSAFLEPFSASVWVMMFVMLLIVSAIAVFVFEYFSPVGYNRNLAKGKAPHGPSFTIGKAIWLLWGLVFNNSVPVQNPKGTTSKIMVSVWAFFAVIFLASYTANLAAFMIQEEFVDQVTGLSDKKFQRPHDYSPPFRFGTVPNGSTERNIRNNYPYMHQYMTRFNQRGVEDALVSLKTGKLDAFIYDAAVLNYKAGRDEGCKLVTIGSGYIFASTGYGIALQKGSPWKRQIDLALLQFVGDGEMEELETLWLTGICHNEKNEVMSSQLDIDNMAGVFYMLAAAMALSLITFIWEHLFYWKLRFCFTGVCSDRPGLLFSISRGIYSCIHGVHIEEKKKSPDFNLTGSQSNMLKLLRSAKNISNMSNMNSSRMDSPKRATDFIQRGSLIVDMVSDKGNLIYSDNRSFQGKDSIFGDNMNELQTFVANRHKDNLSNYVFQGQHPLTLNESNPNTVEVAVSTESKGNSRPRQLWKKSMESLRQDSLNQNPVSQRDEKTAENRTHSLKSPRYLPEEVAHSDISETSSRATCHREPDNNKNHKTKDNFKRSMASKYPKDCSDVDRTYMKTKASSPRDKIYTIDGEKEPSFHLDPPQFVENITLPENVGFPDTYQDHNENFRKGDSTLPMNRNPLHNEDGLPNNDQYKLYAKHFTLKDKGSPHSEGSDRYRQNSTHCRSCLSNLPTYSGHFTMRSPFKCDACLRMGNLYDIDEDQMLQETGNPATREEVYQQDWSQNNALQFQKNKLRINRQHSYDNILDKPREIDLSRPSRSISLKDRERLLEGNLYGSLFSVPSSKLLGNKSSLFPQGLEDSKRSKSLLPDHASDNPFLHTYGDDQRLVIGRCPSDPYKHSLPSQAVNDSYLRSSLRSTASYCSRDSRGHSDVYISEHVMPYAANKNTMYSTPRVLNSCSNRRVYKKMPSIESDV

Structure (SMILES): [Zn+2] [zinc]
- Zn2+ Hill slope (nH) [1]: 0.44 ± 0.08
- maximal level of zinc inhibition [1]: 40%
- Izn/Io 1 nM ([1]; 1 nM zinc): 0.86 ± 0.03
- Izn/Io 10 nM ([1]; 10 nM zinc): 0.78 ± 0.03
- Izn/Io 50 nM ([1]; 50 nM zinc): 0.70 ± 0.03
- Izn/Io 500 nM ([1]; 500 nM zinc): 0.65 ± 0.03
- Izn/Io 1000 nM ([1]; 1000 nM zinc): 0.64 ± 0.04
- IC50 ([1]; read-out: Zn2+ IC50): 4.64 ± 1.78 nM
- Izn/Io 0.1 μM ([2]; +UV): 0.97 ± 0.02
- Izn/Io 0.1 μM ([2]; -UV): 0.73 ± 0.09
- Izn/Io 1 μM ([2]; +UV): 0.86 ± 0.03
- Izn/Io 1 μM ([2]; -UV): 0.33 ± 0.05
- Izn/Io 10 μM ([2]; +UV): 0.45 ± 0.08
- Izn/Io 10 μM ([2]; -UV): 0.04 ± 0.01
- Zn2+ Hill slope (nH) ([2]; after UV): 0.91 ± 0.02
- Zn2+ Hill slope (nH) ([2]; before UV): 1.02 ± 0.02
- increase in zinc IC50 following UV treatment ([2]; post-UV vs pre-UV): ~ 15 fold
- IC50 ([3]; after UV): 7960 ± 160 nM
- IC50 ([3]; before UV): 540 ± 10 nM
- Zn2+ Hill slope (nH) [4]: 0.88 ± 0.05
- Izn/Io 0.1 μM ([4]; 0.1 μM zinc): 0.78 ± 0.07
- Izn/Io 0.3 μM ([4]; 0.3 μM zinc): 0.60 ± 0.03
- Izn/Io 1 μM ([4]; 1 μM zinc): 0.40 ± 0.03
- Izn/Io 3 μM ([4]; 3 μM zinc): 0.23 ± 0.03
- Izn/Io 10 μM ([4]; 10 μM zinc): 0.10 ± 0.03
- Zn2+ Hill slope (nH) [5]: 1.01 ± 0.01
- Izn/Io 0.1 μM ([5]; 0.1 μM zinc): 0.95 ± 0.07
- Izn/Io 1 μM ([5]; 1 μM zinc): 0.72 ± 0.08
- Izn/Io 10 μM ([5]; 10 μM zinc): 0.22 ± 0.07
- IC50 ([5]; read-out: Zn2+ IC50): 3060 ± 40 nM
- IC50 [6]: 720 ± 50 nM

— article PMC8342458, “GluN2A and GluN2B NMDA receptors use distinct allosteric routes” (Nature Communications, 2021)
